From paper PMC11249953, “c-KIT inhibitors reduce pathology and improve behavior in the Tg(SwDI) model of Alzheimer’s disease” (Life Science Alliance, 2024) come the findings set out here.

Experiment [1] has as its system amyloid-beta in TgAPP mice. In words: ELISA for amyloid-beta in brain lysates. The class given is in vivo, mouse. Particulars: vs DMSO. On the procedure: All samples were analyzed in parallel using the same reagents. A total of 25 μl soluble protein was incubated overnight at 4°C with 25 μl of a mixed bead solution. After washing, samples were incubated with 25 μl detection antibody solution for 1.5 h at RT. Streptavidin–phycoerythrin (25 μl) was added to each well containing the 25 μl of detection antibody solution. Samples were then washed and suspended in 100 μl of sheath fluid. Samples were then run on MAGPIX with Xponent software. The median fluorescent intensity data were analyzed using a five-parameter logistic or spline curve-fitting method for calculating analyte concentrations in samples. Specific pTau ser396 (KHB7031; Invitrogen), aggregated Aβ (KHB3491; Thermo Fisher Scientific), and Aβ42 (KHB3442; Invitrogen) were performed according to manufacturer’s protocol on tissue soluble extracts from brain lysates in 1XSTEN buffer.
A general note: ELISA stands for enzyme-linked immunosorbent assay.

The target of experiment [2] is T1, SYK (Homo sapiens, UniProt P43405).
T1 construct: DNA label for qPCR read-out (T7 phage fusion or DNA tag); purchased Eurofins DiscoverX Corporation; host or cells: T7 phage in E. coli (BL21-derived) or HEK-293
The experiment can be described thus: KINOMEscan competition binding, SYK. Particulars: 10 µM compound; for remaining binding at 10 µM: lower = stronger binding, read-out: SYK %Ctrl @ 10000nM (POC). On the procedure:
The KINOMEscan screening platform (Eurofins DiscoverX Corporation) was performed using active site-directed competition binding assay to quantitatively measure interactions between BK40143 and BK40197 and more than 450 human kinases and disease relevant mutant variants. […] Screening “hits” are identified by measuring the amount of kinase captured in test (BK40143 and BK40197) versus control samples by using a quantitative and ultra-sensitive qRT-PCR method that detects the associated DNA label. BK40143 and BK40197 were screened at 10 µM concentration, and results for primary screen binding interactions were reported as “% Ctrl” (POC), where lower numbers indicate stronger hits and calculated as follows: [test compound signal−positive control signal/negative control signal−positive control signal]×100
negative control = DMSO (100% Ctrl)
positive control = control compound (0% Ctrl)
Based on screening data from of profiled compounds, a proportional relationship between primary screening results and corresponding compound/target affinities can be described as binding constants (Kd values) for the indicated ranges of POC values with tighter binding (higher affinity) interactions associated with lower POC values and weaker binding (lower affinity) associated with higher POC values. Briefly, kinase-tagged T7 phage strains were grown in parallel in 24-well blocks in an E. coli host derived from the BL21 strain. E. coli were grown to log-phase and infected with T7 phage from a frozen stock (multiplicity of infection = 0.4) and incubated with shaking at 32°C until lysis (90–150 min). The lysates were centrifuged (6,000g) and filtered (0.2 μm) to remove cell debris. The remaining kinases were produced in HEK-293 cells and subsequently tagged with DNA for qRT-PCR detection. Streptavidin-coated magnetic beads were treated with biotinylated small molecule ligands for 30 min at RT to generate affinity resins for kinase assays. The liganded beads were blocked with excess biotin and washed with blocking buffer (1% BSA, 0.05% Tween 20, 1 mM DTT; SeaBlock [Pierce]) to remove unbound ligand and to reduce non-specific phage binding. Binding reactions were assembled by combining kinases, liganded affinity beads, and test compounds in 1x binding buffer (20% 0.17x PBS, 0.05% Tween 20, 6 mM DTT; SeaBlock). Test compounds were prepared as 100x stocks in 100% DMSO and directly diluted into the assay. All reactions were performed in polypropylene 384-well plates in a final volume of 0.02 ml. The assay plates were incubated at RT with shaking for 1 h and the affinity beads were washed with wash buffer (1x PBS, 0.05% Tween 20). […] The kinase concentration in the eluates was measured by qRT-PCR.

For experiment [3], the system named is IBA1+ microglia of TgAPP mice. In words: IBA1 staining and microglial morphological analysis (Imaris). It counts as in vivo, mouse. Particulars: BK40143 5 mg/kg, BK40197 45 mg/kg, vs DMSO. As for the experimental part:
Staining for amyloid-beta and microglia was performed on left brain hemispheres collected from treated and untreated mice. Brains were cryoprotected with 30% sucrose and sectioned at 30 μm on a cryostat. Sections were then treated with an anti-amyloid beta (6E10, cat. #803001; BioLegend) or anti-IBA1 (cat. # 018-28523; Wako Chemicals) primary followed by either an AlexaFluor secondary (Thermo Fisher Scientific) and DAPI mounting medium (Vector Labs) or a biotinylated secondary and 3, 3′ diaminobenzidine chromogen substrate. Slides were imaged on either a Leica DMi8 light microscope or a Zeiss LSM 800 confocal microscope.
63x z-stack images (0.19 μm intervals) of IBA1 stained microglia from treated and untreated mice were collected on a Zeiss LSM confocal microscope. 3D images were then analyzed using the “surfaces” plug-in in Imaris 10.0 to ascertain cell-surface area. Individual microglial surface areas were calculated in the advanced statistics tab of Imaris.

As a reminder, the inhibition is how much of the control response was suppressed.

Regarding `Cc1cccc(-c2cc3nccc(N4CCOCC4)c3s2)c1` [BK40197], the “Aβ concentration in brain lysate (ELISA)” value in experiment [1] was “significantly reduced Aβ and pTau (396) concentrations”. For the same compound, in experiment [2], the inhibition at 10 µM came to 56% and the remaining binding at 10 µM is 44%. Moreover, in experiment [3], the “microglial activation (IBA1 staining)” value is “significant reduction in microglial activation” and the “surface area of microglia (Imaris)” value was “significantly reduced surface area of microglia”.
Consider `Cc1cccc(-c2cc3nccc(Nc4ccccc4)c3s2)c1` [BK40143], for which the “Aβ concentration in brain lysate (ELISA)” value in experiment [1] is “significantly reduced Aβ and pTau (396) concentrations”. Besides, in experiment [2], testing at 10 µM gave an inhibition of 94.5% and the remaining binding at 10 µM came out at 5.5%. In experiment [3], the “microglial activation (IBA1 staining)” value is “significant reduction in microglial activation” and the “surface area of microglia (Imaris)” value is given as “significantly reduced surface area of microglia”.
